Measurements from paper PMC13187428, “Mechanistic basis for selective Csm6-2 activation by cyclic penta-adenylate in a type III CRISPR-Cas system” (The EMBO Journal, 2026).
Where two headings read alike, the source gives them in different places.

Experiments:
[1] = target: Csm6-2 L473E/L474E mutant (Actinomyces procaprae); test: SEC; size-exclusion chromatography profiles of WT and L473E/L474E mutant proteins
[2] = target: T1, Csm6-2 (ApCsm6-2) (Actinomyces procaprae, UniProt Z9IBH4OPS2); test: SPR (Biacore 8K, CM5 chip, amine-coupled Csm6-2); type: binding
T1 construct: full length, tandem CARF1-HEPN1 (1-400) and CARF2-HEPN2 (401-797); N-terminal His6 tag, pET-28a, E. coli Rosetta (DE3), codon-optimised; homotetramer
T1 sequence (Z9IBH4OPS2 1-797): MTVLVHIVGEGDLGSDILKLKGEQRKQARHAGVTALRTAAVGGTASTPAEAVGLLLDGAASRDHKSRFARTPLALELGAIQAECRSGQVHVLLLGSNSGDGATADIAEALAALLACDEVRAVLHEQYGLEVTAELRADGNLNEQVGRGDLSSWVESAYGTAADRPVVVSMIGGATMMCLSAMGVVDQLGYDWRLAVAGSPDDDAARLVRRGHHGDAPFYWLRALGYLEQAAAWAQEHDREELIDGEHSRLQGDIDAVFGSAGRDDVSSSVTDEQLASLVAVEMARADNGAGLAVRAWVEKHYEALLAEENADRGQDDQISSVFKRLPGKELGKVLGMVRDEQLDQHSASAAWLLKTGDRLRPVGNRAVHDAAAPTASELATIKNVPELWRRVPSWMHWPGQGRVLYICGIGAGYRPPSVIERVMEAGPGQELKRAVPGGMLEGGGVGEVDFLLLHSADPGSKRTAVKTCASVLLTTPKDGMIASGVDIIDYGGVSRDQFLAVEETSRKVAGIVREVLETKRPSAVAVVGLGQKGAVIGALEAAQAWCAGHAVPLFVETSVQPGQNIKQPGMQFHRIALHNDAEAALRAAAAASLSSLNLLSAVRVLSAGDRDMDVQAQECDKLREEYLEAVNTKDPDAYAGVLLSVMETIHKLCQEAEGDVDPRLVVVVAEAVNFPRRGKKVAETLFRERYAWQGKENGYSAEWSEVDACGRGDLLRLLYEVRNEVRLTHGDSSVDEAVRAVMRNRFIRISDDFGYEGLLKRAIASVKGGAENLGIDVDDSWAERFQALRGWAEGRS

With Csm6-2 L473E/L474E mutant (enzyme) the stoichiometry N [1] was 2.

In the case of `Nc1ncnc2c1ncn2[C@@H]1O[C@@H]2COP(=O)(O)O[C@H]3[C@@H](O)[C@H](n4cnc5c(N)ncnc54)O[C@@H]3COP(=O)(O)O[C@H]3[C@@H](O)[C@H](n4cnc5c(N)ncnc54)O[C@@H]3COP(=O)(O)O[C@H]3[C@@H](O)[C@H](n4cnc5c(N)ncnc54)O[C@@H]3COP(=O)(O)O[C@H]3[C@@H](O)[C@H](n4cnc5c(N)ncnc54)O[C@@H]3COP(=O)(O)O[C@H]2[C@H]1O` [cA5], the Kd ([2]; PBST (0.5% Tween-20) running buffer, allosteric activator, CARF domain pocket) is reported as 1.41 nM.

`Nc1ncnc2c1ncn2[C@@H]1O[C@@H]2COP(=O)(O)O[C@H]3[C@@H](O)[C@H](n4cnc5c(N)ncnc54)O[C@@H]3COP(=O)(O)O[C@H]3[C@@H](O)[C@H](n4cnc5c(N)ncnc54)O[C@@H]3COP(=O)(O)O[C@H]3[C@@H](O)[C@H](n4cnc5c(N)ncnc54)O[C@@H]3COP(=O)(O)O[C@H]3[C@@H](O)[C@H](n4cnc5c(N)ncnc54)O[C@@H]3COP(=O)(O)O[C@H]3[C@@H](O)[C@H](n4cnc5c(N)ncnc54)O[C@@H]3COP(=O)(O)O[C@H]2[C@H]1O` [cA6] showed a Kd [2] of 3.72 nM.
